Test results from patent US20180344715A1, “WNT/BETA-CATENIN SIGNAL TRANSDUCTION INHIBITORS AND THEIR USE IN TREATMENT OR PREVENTION OF DISEASES AND CONDITIONS LINKED WITH SAID TRANSDUCTION” (BERGEN TEKNOLOGIOVERFORING AS, priority 2015, published 2018).

Tested on: Wnt/β-catenin signaling
Experiment: TOPFlash reporter assay in 293FT cells
Format: cell-based, human
Details: 1 μM 6BIO together with drug at indicated concentrations, 24 hours
Description: TOPFlash assay was performed in 96-well plate. For each well, 293T cells were transfected with 0.22 μg TOPFlash (or FOPFlash with mutant TCF binding sites) and 0.02 μg pRL-SV40P using lipofectamine 3000. For co-transfection with other plasmids, 0.1 μg additional DNA was used. […] The luciferase activity was measured 24 hours later by using Dual-Glo® Luciferase Assay System (Promega, E2940) according to the recommended protocol. The TOPFlash or FOPFlash activity was normalized to Renilla luciferase signals.
TOPFlash assay was performed as described above. Briefly, for each well of a 96-well plate 293FT cells were transfected with 0.22 μg TOPFlash (or FOPFlash with mutant TCF binding sites) and 0.02 μg pRL-SV40P using lipofectamine 3000. For co-transfection with other plasmids, 0.1 μg additional DNA was used. Four hours after transfection, 293FT cells were treated with DMSO, 1 μM 6B10 and 1 μM 6B10 together with pazopanib, orlistat and topotecan at varying concentrations for 24 hours. The luciferase activity was then measured using Dual-Glo® Luciferase Assay System (Promega, E2940) according to the recommended protocol. The TOPFlash or FOPFlash activity was normalized to Renilla luciferase signals.

Row | SMILES | TOPFlash activity normalized to Renilla luciferase activity
1 | CC[C@@]1(O)C(=O)OCc2c1cc1n(c2=O)Cc2cc3c(CN(C)C)c(O)ccc3nc2-1.Cl [topotecan, (S)-10-[(dimethylamino)methyl]-4-ethyl-4,9-dihydroxy-1H-pyrano[3′,4′:6,7]indolizino[1,2-b]quinoline-3,14(4H,12H)-dione monohydrochloride] | Wnt signaling inhibition
2 | CCCCCCCCCCC[C@@H](C[C@@H]1OC(=O)[C@H]1CCCCCC)OC(=O)[C@H](CC(C)C)NC=O [orlistat, (S)-((S)-1-((2S,3S)-3-Hexyl-4-oxooxetan-2-yl)tridecan-2-yl) 2-formamido-4-methylpentanoate] | Wnt signaling inhibition
